Key:
[1] = Determination of the microsomal half-life / microsomal clearance (human); assay type: in vitro ADME; conditions: pH 7.4; human liver microsomes, 0.5 μM test substance, 0.25 mg microsomal protein/ml; read-out: Human Mikrosomal Clearance
Method: The metabolic stability of a compound can be determined, for example, by incubating a solution of this compound with liver microsomes from particular species (for example rat, dog or human) and determining the half-life of the compound under these conditions (RS Obach, Curr Opin Drug Discov Devel. 2001, 4, 36-44). It is possible to conclude from an observed larger half-life that the metabolic stability of the compound is improved. The stability in the presence of human liver microsomes is of particular interest since it makes it possible to predict the metabolic degradation of the compound in the human liver. Compounds with increased metabolic stability (determined in the liver microsome test) are therefore probably also degraded more slowly in the liver. The slower metabolic degradation in the liver can lead to higher and/or longer-lasting concentrations (effective levels) of the compound in the body, so that the elimination half-life of the compounds according to the invention is increased. Increased and/or longer-lasting effective levels may lead to a better efficacy of the compound in the treatment or prophylaxis of various vasopressin-dependent diseases. An improved metabolic stability may additionally lead to an increased bioavailability after oral administration, because the compound is subjected, after being absorbed in the intestine, to less metabolic degradation in the liver (so-called first pass effect). An increased oral bioavailability may, because the concentration (effective level) of the compound is increased, lead to a better efficacy of the compound after oral administration.
Determination of the Microsomal Half-Life:
The metabolic stability of the compounds of the invention was determined in the following assay.
The test substances are incubated in a concentration of 0.5 μM as follows:
0.5 μM test substance is preincubated together with liver microsomes of various species (rat, human or other species) (0.25 mg of microsomal protein/ml) in 0.05M potassium phosphate buffer pH 7.4 in microtitre plates at 37° C. for 5 min. The reaction is started by adding NADPH (1 mg/ml). 50 μl aliquots are taken after 0, 5, 10, 15, 20 and 30 min, and the reaction is stopped immediately with the same volume of acetonitrile and cooled down. The samples are frozen until analyzed. Using MSMS, the remaining concentration of undegraded test substance is determined. From the […] of the test substance signal/time unit curve, the half-life (T½) is determined, where the half-life of the test substance can be calculated, assuming first order kinetics, from the decrease in the concentration of the compound with time. The microsomal clearance (mCl) is calculated as mCl=In2/T½/(content of microsomal protein in mg/ml)×1000 [ml/min/mg] (modified according to the literature references: Di, The Society for Biomoleculaur Screening, 2003, 453-462; Obach, DMD, 1999 vol 27. N 11, 1350-1359).

[2] = target: human vasopressin V1a receptor (Homo sapiens, UniProt P37288); assay: Vasopressin V1a receptor binding assay; conditions: selectivity for V1b over V1a, quotient of Ki values
Sequence of human vasopressin V1a receptor (P37288 whole entry): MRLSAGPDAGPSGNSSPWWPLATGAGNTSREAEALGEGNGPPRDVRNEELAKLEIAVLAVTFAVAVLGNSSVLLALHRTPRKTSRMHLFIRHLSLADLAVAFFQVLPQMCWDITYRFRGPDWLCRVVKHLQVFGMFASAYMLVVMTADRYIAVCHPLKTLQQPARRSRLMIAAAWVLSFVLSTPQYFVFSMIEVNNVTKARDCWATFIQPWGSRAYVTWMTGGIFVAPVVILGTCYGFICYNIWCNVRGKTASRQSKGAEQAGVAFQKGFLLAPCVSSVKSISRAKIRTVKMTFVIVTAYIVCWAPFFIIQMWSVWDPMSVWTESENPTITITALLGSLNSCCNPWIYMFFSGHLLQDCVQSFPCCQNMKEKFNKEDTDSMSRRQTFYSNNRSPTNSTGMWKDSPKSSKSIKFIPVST

[3] = target: T1, recombinant human oxytocin receptors (Homo sapiens, UniProt P30559); assay: Oxytocin receptor binding assay; conditions: selectivity for V1b over oxytocin receptor, quotient of Ki values
T1 construct: expressed in transfected cells; host or cells: HEK-293, transient expression; lysed and homogenized cells
T1 sequence (P30559 1-389): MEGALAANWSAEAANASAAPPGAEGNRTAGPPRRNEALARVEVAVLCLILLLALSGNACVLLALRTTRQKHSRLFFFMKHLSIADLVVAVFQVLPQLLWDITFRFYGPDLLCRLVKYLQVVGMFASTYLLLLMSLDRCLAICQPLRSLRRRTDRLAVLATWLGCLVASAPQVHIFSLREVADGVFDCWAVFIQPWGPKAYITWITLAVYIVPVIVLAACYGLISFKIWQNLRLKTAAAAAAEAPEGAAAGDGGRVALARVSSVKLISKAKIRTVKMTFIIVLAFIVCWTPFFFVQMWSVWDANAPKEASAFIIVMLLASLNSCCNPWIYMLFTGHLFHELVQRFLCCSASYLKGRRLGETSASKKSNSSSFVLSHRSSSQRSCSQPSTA
Method: Oxytocin Receptor Binding Assay
Confluent HEK-293 cells with transiently expressing recombinant human oxytocin receptors were centrifuged at 750×g and at room temperature for 5 minutes. The residue was taken up in ice-cold lysis buffer (50 mM Tris-HCl, 10% glycerol, pH 7.4 and Roche Complete Protease Inhibitor) and subjected to an osmotic shock at 4° C. for 20 minutes. The lyzed cells were then centrifuged at 750×g and at 4° C. for 20 minutes, the residue was taken up in incubation buffer, and aliquots of 10^7 cells/ml were prepared. The aliquots were frozen at −80° C. until used.
On the day of the experiment, the cells were thawed, diluted with incubation buffer and homogenized using a Multipette Combitip (Eppendorf, Hamburg). […] The nonspecific binding was determined with 10^−6 M oxytocin (Bachem AG, H2510). Determinations in triplicate were set up. Bound and free radioligand were separated by filtration under vacuum with Whatman GF/B glass fibre filters using a Skatron cell harvester 7000. The bound radioactivity was determined by liquid scintillation measurement in a Tricarb beta counter, model 2000 or 2200CA (Packard).

[4] = target: T2, human vasopressin V1b receptor (Homo sapiens, UniProt P47901); assay: Vasopressin V1b receptor binding assay; conditions: displacement of 3H-AVP, membranes of CHO-K1 cells with human V1b receptor
T2 construct: expressed in transfected cells; host or cells: CHO-K1 (cell line hV1b-3H2_CHO), membrane preparation
T2 sequence (P47901 1-424): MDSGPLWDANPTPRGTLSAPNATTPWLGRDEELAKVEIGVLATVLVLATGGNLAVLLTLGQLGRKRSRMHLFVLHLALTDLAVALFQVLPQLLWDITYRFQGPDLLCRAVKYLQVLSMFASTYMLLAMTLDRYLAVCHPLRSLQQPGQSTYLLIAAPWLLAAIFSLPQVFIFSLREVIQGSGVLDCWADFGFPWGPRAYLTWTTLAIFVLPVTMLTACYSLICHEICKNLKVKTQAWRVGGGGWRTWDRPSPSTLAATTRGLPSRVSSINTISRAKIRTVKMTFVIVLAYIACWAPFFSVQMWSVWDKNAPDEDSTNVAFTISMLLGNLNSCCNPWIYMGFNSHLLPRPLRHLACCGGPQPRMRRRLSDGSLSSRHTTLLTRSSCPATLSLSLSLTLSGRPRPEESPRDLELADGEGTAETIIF
Method: Methods for Determining the Biological Activity Vasopressin V1b Receptor Binding Assay: Substances:
This series of DMSO predilutions was diluted 1:10 with assay buffer. The substance concentration was again diluted 1:5 in the assay mixture (2% DMSO in the mixture).
All determinations were carried out as triplicate determinations.

SMILES	microsomal CLint at 0.5 μM [1] [µL/min/mg]	Ki(h-V1a)/Ki(h-V1b) [2]	Ki(h-OT)/Ki(h-V1b) [3]	Ki [4] [nM]
CCOc1ncccc1C1(NC(=O)N2CCC(N3CCNCC3)CC2)C(=O)N(S(=O)(=O)c2ccc(OC)cc2OC)c2ccc(C#N)cc21 (racemic) [Example 55, N-[5-Cyano-1-[(2,4-dimethoxyphenyl)sulphonyl]-3-(2-ethoxypyridin-3-yl)-2-oxo-2,3-dihydro-1H-indol-3-yl]-4-piperazin-1-ylpiperidine-1-carboxamide]	60 to 120	+++ (>100)	++ (>25-50)	< 10
CCOc1ncccc1C1(NC(=O)N2CCN(C3CCN(C)CC3)CC2)C(=O)N(S(=O)(=O)c2ccccc2)c2ccc(C#N)cc21 (racemic) [Example 4, N-[5-Cyano-3-(2-ethoxypyridin-3-yl)-2-oxo-1-(phenylsulphonyl)-2,3-dihydro-1H-indol-3-yl]-4-(1-methylpiperidin-4-yl)piperazine-1-carboxamide]	< 60	++ (>50-100)	++ (>25-50)	10 to 50
CCOc1ncccc1C1(NC(=O)N2CCC(C3CCNCC3)CC2)C(=O)N(S(=O)(=O)c2ccc(OC)cc2OC)c2ccc(C#N)cc21.O=C(O)C(F)(F)F.O=C(O)C(F)(F)F (racemic) [Example 85, N-[5-Cyano-1-[(2,4-dimethoxyphenyl)sulphonyl]-3-(2-ethoxypyridin-3-yl)-2-oxo-2,3-dihydro-1H-indol-3-yl]-4,4′-bipiperidine-1-carboxamide bis(trifluoroacetate)]	60 to 120	+++ (>100)	++ (>25-50)	< 10
CCOc1ncccc1[C@]1(NC(=O)N2CCN(C3CCN(C)CC3)CC2)C(=O)N(S(=O)(=O)c2ccc(OC)cc2OC)c2ccc(C#N)cc21 [Example 1B, (−)-N-[5-Cyano-1-[(2,4-dimethoxyphenyl)sulphonyl]-3-(2-ethoxypyridin-3-yl)-2-oxo-2,3-dihydro-1H-indol-3-yl]-4-(1-methylpiperidin-4-yl)piperazine-1-carboxamide]	< 60	+++ (>100)	+++ (>50)	< 10
CCOc1ncccc1C1(NC(=O)N2CCN(C3CCN(C)CC3)CC2)C(=O)N(S(=O)(=O)c2ccc(OC)cc2OC)c2ccc(C#N)cc21 (racemic) [Example 1, N-[5-Cyano-1-[(2,4-dimethoxyphenyl)sulphonyl]-3-(2-ethoxypyridin-3-yl)-2-oxo-2,3-dihydro-1H-indol-3-yl]-4-(1-methylpiperidin-4-yl)piperazine-1-carboxamide]	< 60	+++ (>100)	+++ (>50)	< 10
CCOc1ncccc1C1(NC(=O)N2CCC(N3CCN(CC)CC3)CC2)C(=O)N(S(=O)(=O)c2ccc(OC)cc2OC)c2ccc(C#N)cc21 (single isomer, unassigned) [Example 37B, (−)-N-[5-Cyano-1-[(2,4-dimethoxyphenyl)sulphonyl]-3-(2-ethoxypyridin-3-yl)-2-oxo-2,3-dihydro-1H-indol-3-yl]-4-(4-ethylpiperazin-1-yl)piperidine-1-carboxamide]	< 60	+++ (>100)	+++ (>50)	< 10
CCOc1ncccc1C1(NC(=O)N2CCN(C3CCNCC3)CC2)C(=O)N(S(=O)(=O)c2ccc(OC)cc2OC)c2ccc(C#N)cc21.O=C(O)C(F)(F)F.O=C(O)C(F)(F)F (racemic) [Example 25, N-[5-Cyano-1-[(2,4-dimethoxyphenyl)sulphonyl]-3-(2-ethoxypyridin-3-yl)-2-oxo-2,3-dihydro-1H-indol-3-yl]-4-piperidin-4-ylpiperazine-1-carboxamide bis(trifluoroacetate)]	< 60	+++ (>100)	++ (>25-50)	< 10
CCOc1ncccc1C1(NC(=O)N2CCC(N3CCN(C)CC3)CC2)C(=O)N(S(=O)(=O)c2ccc(OC)cc2OC)c2ccc(C#N)cc21 (single isomer, unassigned) [Example 31B, (−)-N-[5-Cyano-1-[(2,4-dimethoxyphenyl)sulphonyl]-3-(2-ethoxypyridin-3-yl)-2-oxo-2,3-dihydro-1H-indol-3-yl]-4-(4-methylpiperazin-1-yl)piperidine-1-carboxamide]	< 60	+++ (>100)	+++ (>50)	< 10
CCOc1ncccc1C1(NC(=O)N2CCC(N3CCN(CC)CC3)CC2)C(=O)N(S(=O)(=O)c2ccc(OC)cc2OC)c2ccc(C#N)cc21 (racemic) [Example 37, N-[5-Cyano-1-[(2,4-dimethoxyphenyl)sulphonyl]-3-(2-ethoxypyridin-3-yl)-2-oxo-2,3-dihydro-1H-indol-3-yl]-4-(4-ethylpiperazin-1-yl)piperidine-1-carboxamide]	60 to 120	+++ (>100)	+++ (>50)	< 10
CCOc1ncccc1C1(NC(=O)N2CCC(N3CCN(CC)CC3)CC2)C(=O)N(S(=O)(=O)c2ccccc2)c2ccc(C#N)cc21 (racemic) [Example 40, N-[5-Cyano-3-(2-ethoxypyridin-3-yl)-2-oxo-1-(phenylsulphonyl)-2,3-dihydro-1H-indol-3-yl]-4-(4-ethylpiperazin-1-yl)piperidine-1-carboxamide]	60 to 120	++ (>50-100)	+++ (>50)	< 10

Reference: patent publication US8859557B2, “Substituted oxindole derivatives and their use as vasopressin receptor ligands” (Abbott GmbH & Co. KG, priority 2006, dated 2014)
